Test results reported in patent US9295706B2, “Phytotherapic pharmaceutical combination of Lippia salviifolia and Lippia sidoides, phytotherapic pharmaceutical composition, process for preparing a phytotherapic pharmaceutical composition and veterinary uses thereof” (priority 2010, dated 2016).

Key:
Assay type in all cases: cell-based
[1] = system: Candida albicans; assay: Minimum Inhibitory Concentration (MIC) against Candida albicans; conditions: Candida albicans strain
[2] = system: Escherichia coli; assay: Minimum Inhibitory Concentration (MIC) against Escherichia coli; conditions: Escherichia coli strain
[3] = system: Staphylococcus aureus; assay: Minimum Inhibitory Concentration (MIC) against Staphylococcus aureus; conditions: Staphylococcus aureus strain
[4] = system: Pseudomonas aeruginosa; assay: Minimum Inhibitory Concentration (MIC) against Pseudomonas aeruginosa; conditions: Pseudomonas aeruginosa strain
[5] = system: Staphylococcus epidermidis; assay: Minimum Inhibitory Concentration (MIC) against Staphylococcus epidermidis; conditions: Staphylococcus epidermidis strain

| Compound | MIC Values [1] | MIC Values [2] | MIC Values [3] | MIC Values [4] | MIC Values [5] |
| --- | --- | --- | --- | --- | --- |
| C[C@@H]1[C@H](O)[C@@H](C)/C=C/C=C/C=C/C=C/C=C/C=C/C=C/[C@H](O[C@@H]2O[C@H](C)[C@@H](O)[C@H](N)[C@@H]2O)C[C@@H]2O[C@](O)(C[C@@H](O)C[C@@H](O)[C@H](O)CC[C@@H](O)C[C@@H](O)CC(=O)O[C@H]1C)C[C@H](O)[C@H]2C(=O)O [Amphotericin B] | 3.15 (b) μg/ml | – | – | – | – |
| Gemtamicin | – | 75 (a) μg/ml | 75 (a) μg/ml | 37 (a) μg/ml | 150 (a) μg/ml |
